Data published in ChEMBL document CHEMBL1201862, “PubChem BioAssay data set” (2004).
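Compound exposure: 48 hours, 5 concentrations, 96-well plates. The concentration for 50% growth inhibition is given as GI50.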 Activity calls are given as the source filed them. Rule as the data show it: active = GI50 up to about 1.1 µM and inactive = higher.

Experiments:
Assay in all cases: NCI-60 cell line screen, 48 h
HCT-15 = test system: HCT-15
HCT-116 = test system: HCT-116
HOP-92 = test system: HOP-92
SK-MEL-5 = test system: SK-MEL-5
NCI-H522 = test system: NCI-H522
SK-MEL-28 = test system: SK-MEL-28
SK-OV-3 = test system: SK-OV-3
SF-539 = test system: SF-539
SN12C = test system: SN12C
UACC-257 = test system: UACC-257
MOLT-4 = test system: MOLT-4
SF-295 = test system: SF-295
OVCAR-4 = test system: OVCAR-4
A498 = test system: A498
786-0 = test system: 786-0
HT-29 = test system: HT-29
LXFL 529 = test system: LXFL 529
OVCAR-8 = test system: OVCAR-8
RPMI-8226 = test system: RPMI-8226
UACC-62 = test system: UACC-62
NCI-H226 = test system: NCI-H226
SNB-19 = test system: SNB-19
SR = test system: SR
Malme-3M = test system: Malme-3M
HL-60 = test system: HL-60
ACHN = test system: ACHN
DMS-114 = test system: DMS-114
SNB-78 = test system: SNB-78
XF498 = test system: XF498
COLO 205 = test system: COLO 205
SNB-75 = test system: SNB-75
CCRF-CEM = test system: CCRF-CEM
SF-268 = test system: SF-268
M19-MEL = test system: M19-MEL
U-251 = test system: U-251
NCI-H23 = test system: NCI-H23
K562 = test system: K562
OVCAR-3 = test system: OVCAR-3
LOX IMVI = test system: LOX IMVI
IGROV-1 = test system: IGROV-1
HOP-18 = test system: HOP-18
SW-620 = test system: SW-620
KM-20L2 = test system: KM-20L2
DLD-1 = test system: DLD-1
UO-31 = test system: UO-31
CAKI-1 = test system: CAKI-1
A549 = test system: A549
SK-MEL-2 = test system: SK-MEL-2
DMS-273 = test system: DMS-273
NCI-H460 = test system: NCI-H460
OVCAR-5 = test system: OVCAR-5
EKVX = test system: EKVX
KM12 = test system: KM12
TK-10 = test system: TK-10
M14 = test system: M14
RXF 393 = test system: RXF 393
HCC 2998 = test system: HCC 2998
HOP-62 = test system: HOP-62

Question: What does the source list for `O=C(N/C=C1\C(=O)Oc2ccccc2C1=O)Nc1ccccc1`?
Answer: GI50 (HCT-15): 40.3 µM; GI50 (HCT-116): 37.7 µM (inactive); GI50 (HOP-92): 25.8 µM (inactive); GI50 (SK-MEL-5): 25.8 µM (inactive); GI50 (NCI-H522): 58.5 µM (inactive); GI50 (SK-MEL-28): 87.1 µM (inactive); GI50 (SK-OV-3): 31.6 µM (inactive); GI50 (SF-539): 43.8 µM (inactive); GI50 (SN12C): 32.8 µM (inactive); GI50 (UACC-257): 91.2 µM (inactive); GI50 (MOLT-4): > 100 µM (inactive); GI50 (SF-295): > 100 µM (inactive); GI50 (OVCAR-4): > 100 µM (inactive); GI50 (A498): 35.3 µM (inactive); GI50 (786-0): 43.3 µM (inactive); GI50 (HT-29): > 100 µM (inactive); GI50 (LXFL 529): 81.1 µM (inactive); GI50 (OVCAR-8): 44.1 µM (inactive); GI50 (RPMI-8226): > 100 µM (inactive); GI50 (UACC-62): 38.5 µM (inactive); GI50 (NCI-H226): 23.5 µM (inactive); GI50 (SNB-19): 29 µM (inactive); GI50 (SR): 69 µM (inactive); GI50 (Malme-3M): 17 µM (inactive); GI50 (HL-60): > 100 µM (inactive); GI50 (ACHN): 27.7 µM (inactive); GI50 (DMS-114): 44.9 µM (inactive); GI50 (SNB-78): 30.1 µM (inactive); GI50 (XF498): 74.3 µM (inactive); GI50 (COLO 205): > 100 µM (inactive); GI50 (SNB-75): 12.8 µM (inactive); GI50 (CCRF-CEM): > 100 µM (inactive); GI50 (SF-268): 31.8 µM (inactive); GI50 (M19-MEL): 55.8 µM (inactive); GI50 (U-251): 40.2 µM (inactive); GI50 (NCI-H23): 88.7 µM (inactive); GI50 (K562): > 100 µM (inactive); GI50 (OVCAR-3): 75 µM (inactive); GI50 (LOX IMVI): 42.4 µM (inactive); GI50 (IGROV-1): 51.2 µM (inactive); GI50 (HOP-18): 27.5 µM (inactive); GI50 (SW-620): 61.2 µM (inactive); GI50 (KM-20L2): > 100 µM (inactive); GI50 (DLD-1): 42.6 µM (inactive); GI50 (UO-31): 28.3 µM (inactive); GI50 (CAKI-1): 15.1 µM (inactive); GI50 (A549): 53.1 µM (inactive); GI50 (SK-MEL-2): 18.5 µM (inactive); GI50 (DMS-273): > 100 µM (inactive); GI50 (NCI-H460): 63.8 µM (inactive); GI50 (OVCAR-5): 61.5 µM (inactive); GI50 (EKVX): > 100 µM (inactive); GI50 (KM12): 64 µM (inactive); GI50 (TK-10): 34 µM (inactive); GI50 (M14): 52.8 µM (inactive); GI50 (RXF 393): 16.7 µM (inactive); GI50 (HCC 2998): 58.1 µM (inactive)

Question: Which GI50 (HCT-15) does the source give for `CC1(C(=O)Nc2ccc3cc4ccccc4cc3c2)CC2(C)CC(C)(C1)C(O)NC2=O` (stereo not drawn) here?
Answer: The GI50 was over 100 µM.

Question: What about the GI50 (HCT-116) of the same compound?
Answer: The GI50 was > 100 µM (inactive).

Question: What about the GI50 (HOP-92) of the same compound?
Answer: Its GI50 is 59.3 µM (inactive).

Question: What about the GI50 (SK-MEL-5) of the same compound?
Answer: The GI50 was > 100 µM (inactive).

Question: What about the GI50 (SK-MEL-28) of the same compound?
Answer: The GI50 was > 100 µM (inactive).

Question: What about the GI50 (SK-OV-3) of the same compound?
Answer: Its GI50 is > 100 µM (inactive).

Question: And the GI50 (SF-539)?
Answer: Its GI50 is > 100 µM (inactive).

Question: What about the GI50 (SN12C) of the same compound?
Answer: Its GI50 is > 100 µM (inactive).

Question: And the GI50 (UACC-257)?
Answer: Its GI50 is > 100 µM (inactive).

Question: What about the GI50 (MOLT-4) of the same compound?
Answer: Its GI50 is 20.6 µM (inactive).

Question: What about the GI50 (SF-295) of the same compound?
Answer: Its GI50 is 66.5 µM (inactive).

Question: What about the GI50 (OVCAR-4) of the same compound?
Answer: Its GI50 is > 100 µM (inactive).

Question: What about the GI50 (A498) of the same compound?
Answer: The GI50 was > 100 µM (inactive).

Question: What about the GI50 (HOP-62) of the same compound?
Answer: Its GI50 is > 100 µM (inactive).

Question: And the GI50 (786-0)?
Answer: The GI50 was > 100 µM (inactive).

Question: And the GI50 (HT-29)?
Answer: Its GI50 is 92.5 µM (inactive).

Question: And the GI50 (LXFL 529)?
Answer: Its GI50 is > 100 µM (inactive).

Question: And the GI50 (OVCAR-8)?
Answer: Its GI50 is > 100 µM (inactive).

Question: What about the GI50 (RPMI-8226) of the same compound?
Answer: The GI50 was 61.1 µM (inactive).

Question: What about the GI50 (UACC-62) of the same compound?
Answer: The GI50 was > 100 µM (inactive).

Question: And the GI50 (NCI-H226)?
Answer: Its GI50 is 53.1 µM (inactive).

Question: What about the GI50 (SR) of the same compound?
Answer: Its GI50 is 23.6 µM (inactive).

Question: And the GI50 (Malme-3M)?
Answer: Its GI50 is 57.3 µM (inactive).

Question: And the GI50 (HL-60)?
Answer: Its GI50 is 20.9 µM (inactive).

Question: What about the GI50 (ACHN) of the same compound?
Answer: The GI50 was 36.7 µM (inactive).

Question: What about the GI50 (DMS-114) of the same compound?
Answer: Its GI50 is 92 µM (inactive).

Question: What about the GI50 (SNB-78) of the same compound?
Answer: The GI50 was > 100 µM (inactive).

Question: What about the GI50 (XF498) of the same compound?
Answer: The GI50 was > 100 µM (inactive).

Question: What about the GI50 (COLO 205) of the same compound?
Answer: Its GI50 is 41.6 µM (inactive).

Question: And the GI50 (SNB-75)?
Answer: The GI50 was > 100 µM (inactive).

Question: And the GI50 (CCRF-CEM)?
Answer: The GI50 was 34.4 µM (inactive).

Question: What about the GI50 (SF-268) of the same compound?
Answer: Its GI50 is > 100 µM (inactive).

Question: What about the GI50 (M19-MEL) of the same compound?
Answer: Its GI50 is > 100 µM (inactive).

Question: And the GI50 (U-251)?
Answer: The GI50 was > 100 µM (inactive).

Question: And the GI50 (NCI-H23)?
Answer: The GI50 was > 100 µM (inactive).

Question: And the GI50 (K562)?
Answer: Its GI50 is 73.1 µM (inactive).

Question: And the GI50 (OVCAR-3)?
Answer: Its GI50 is 70 µM (inactive).

Question: What about the GI50 (LOX IMVI) of the same compound?
Answer: Its GI50 is 62.4 µM (inactive).

Question: And the GI50 (IGROV-1)?
Answer: The GI50 was > 100 µM (inactive).

Question: What about the GI50 (HOP-18) of the same compound?
Answer: Its GI50 is 93.5 µM (inactive).

Question: What about the GI50 (SW-620) of the same compound?
Answer: Its GI50 is > 100 µM (inactive).

Question: And the GI50 (KM-20L2)?
Answer: Its GI50 is 85.3 µM (inactive).

Question: What about the GI50 (DLD-1) of the same compound?
Answer: Its GI50 is 32.9 µM (inactive).

Question: And the GI50 (UO-31)?
Answer: The GI50 was > 100 µM (inactive).

Question: What about the GI50 (CAKI-1) of the same compound?
Answer: Its GI50 is > 100 µM (inactive).

Question: What about the GI50 (A549) of the same compound?
Answer: Its GI50 is 98.4 µM (inactive).

Question: What about the GI50 (SK-MEL-2) of the same compound?
Answer: Its GI50 is > 100 µM (inactive).

Question: What about the GI50 (DMS-273) of the same compound?
Answer: Its GI50 is > 100 µM (inactive).

Question: What about the GI50 (NCI-H460) of the same compound?
Answer: The GI50 was 56 µM (inactive).

Question: What about the GI50 (OVCAR-5) of the same compound?
Answer: Its GI50 is > 100 µM (inactive).

Question: What about the GI50 (EKVX) of the same compound?
Answer: Its GI50 is > 100 µM (inactive).

Question: And the GI50 (KM12)?
Answer: Its GI50 is > 100 µM (inactive).

Question: And the GI50 (TK-10)?
Answer: Its GI50 is 63 µM (inactive).

Question: What about the GI50 (M14) of the same compound?
Answer: Its GI50 is > 100 µM (inactive).

Question: What about the GI50 (RXF 393) of the same compound?
Answer: The GI50 was > 100 µM (inactive).

Question: And the GI50 (HCC 2998)?
Answer: Its GI50 is > 100 µM (inactive).
